Consider 26 compounds from article PMC2206373, “Identification of an altered peptide ligand based on the endogenously presented, rheumatoid arthritis-associated, human cartilage glycoprotein-39(263–275) epitope: an MHC anchor variant peptide for immune modulation” (Arthritis Research & Therapy, 2007).

Like-named read-outs stand apart in the source and are kept apart here. Non-standard residues stand in square brackets, D forms with d. Residues, ends and D or L forms follow the SMILES beside them. No end group written: not given here. *: point of attachment. Phe(4-NO2) = N[C@@H](Cc1ccc([N+](=O)[O-])cc1)C(=O)O; Phe(4-Cl) = N[C@@H](Cc1ccc(Cl)cc1)C(=O)O; Phe(4-F) = N[C@@H](Cc1ccc(F)cc1)C(=O)O; Phe(4-I) = N[C@@H](Cc1ccc(I)cc1)C(=O)O; hPhe = N[C@@H](CCc1ccccc1)C(=O)O; 3Pal = N[C@@H](Cc1cccnc1)C(=O)O; 2Thi = N[C@@H](Cc1cccs1)C(=O)O; Cha = N[C@@H](CC1CCCCC1)C(=O)O; Bn = c1ccc(C*)cc1

Test [1] has as its target HLA-DR4(B1*0401) (Homo sapiens, UniProt P01903+P01911, A100K/A169T/F76Y/I96L/K127E/L162R/M171V/N62H/P40V/Q125Y/R42H/S133A/S149N/S66Y/V115G/V209L/W38E). Put plainly: HLA-DR4 competition peptide binding assay. As to conditions: competition with biotinylated HA307-319 (Y309F) 50 nM, purified HLA-DR4 30 nM, pH 5, 48 h, room temperature. The procedure: HLA-DR bound marker peptide was separated from free marker peptide and the amount of bound marker peptide was detected and quantified by enhanced chemoluminescense. Inhibition curves were generated and the IC50 was determined. The concentration of competitor peptide inducing 50% inhibition of marker peptide binding was determined, and expressed as the 50% inhibitory concentration (IC50 in μM).

For test [2], the system named is T cell hybridoma 5G11. Put plainly: T hybridoma 5G11 IL-2 response. It is filed as cell-based, mouse. As to conditions: Figure 1; IL-2 production, DRB1*0401 BLCL as APC; duplicate or triplicate; background 29,203 counts; ±30% of WT response = super/partial agonist. On the procedure: (§1) The T cell hybridomas, provided by G Sonderstrup (Stanford, CA, USA), were generated as described. In brief, human CD4, HLA-DRA*101/HLA-DRB*0401 triple transgenic (HLA-DR4trg) mice (devoid of I-Aβ) were immunized in the footpad with 50 μg of purified HC gp-39 mixed in incomplete Freund's adjuvant (IFA). Draining lymph nodes were isolated and T-cell hybridomas were generated by polyethylene glycol fusion of primed and in vitro antigen-restimulated lymph node cells with the AKR BW5147 fusion partner. Following fusion, growth-positive hybridoma wells were screened for reactivity to HC gp-39 and a set of 55 peptides (16 amino acids in length) covering the entire HC gp-39 sequence. HLA-DR4(B1*0401)-restricted hybridomas responsive to both the HC gp-39 protein and the immunodominant epitope 263–275 of HC gp-39 (for example, 5G11, 8B12, 14G11 and 20H5) were cloned, subcloned, characterised and selected for further study.
(§2) HC gp-39-specific IL-2 production by T hybridomas was measured in wells of round-bottomed microtiter plates. Hybridoma cells (2 to 5 × 10^4) and irradiated APC (0.5 to 1 × 10^5; 12,000 to 16,000 RAD) from the B lymphoblastoid cell line (BLCL) carrying the DRB1*0401 specificity were incubated in 150 μl volumes. Antigen was added in 50 μl volumes to duplicate wells. After 48 h, 100 μl of the culture supernatant was assayed for IL-2 production using a sandwich ELISA with Pharmingen antibodies specific for mouse IL-2. The antigen sensitivity of the hybridomas to both peptide and protein was determined (Figure 2). […] In later assays, an excess of peptide or APL (10 μg/ml), inducing maximal responses in all hybridomas, was tested.

The subject of test [3] is T cell hybridoma 8B12. Kind of test: T hybridoma 8B12 IL-2 response. It counts as cell-based, mouse. As to conditions: Figure 1; IL-2 production, DRB1*0401 BLCL as APC; duplicate or triplicate; background 16,288 counts; ±30% of WT response = super/partial agonist. On the procedure: as §1, §2
Test [4] deals with T cell hybridoma 14G11. Put plainly: T hybridoma 14G11 IL-2 response. It is filed as cell-based, mouse. As to conditions: Figure 1; IL-2 production, DRB1*0401 BLCL as APC; duplicate or triplicate; background 7,152 counts; ±30% of WT response = super/partial agonist. On the procedure: as §1, §2
The mark [5] stands for this setting: Table 1, geometric mean of two experiments, read-out: HLA-DR binding IC50.
Where [6] appears, read: Table 2, read-out: HLA-DR binding IC50.
Setting [7] is: Figure 1, read-out: DRB1*0401 binding IC50.

By IC50 is commonly meant the point on the concentration scale where inhibition reaches its midpoint.

On to SFTLASSETGV [Compound 9], for which the IC50 in test [1] (setting [5]) came to 120 nM. Regarding RSFTAASSETGVG [Compound 14], the IC50 in test [1] (setting [6]) is 80 nM. Still for that read-out and setting: in the case of RSFTLASSETAVG [Compound 20] it was 50 nM. In the case of RSFTLASSETGV [Compound 2], in test [1] (setting [5]), the half-inhibitory concentration (IC50) turned out to be 90 nM.

Consider RSFTLASSETGAG [Compound 21], for which, in test [1] (setting [6]), the half-maximal inhibitory concentration (IC50) was found to be 60 nM. Turning to RSFTLASSETGVA [Compound 22], in test [1] (setting [6]), the IC50 is 50 nM. Turning to `CC(C)C[C@H](NC(=O)[C@@H](NC(=O)[C@H](Cc1ccc([N+](=O)[O-])cc1)NC(=O)[C@H](CO)NC(=O)[C@@H](N)CCCNC(=N)N)[C@@H](C)O)C(=O)N[C@@H](C)C(=O)N[C@@H](CO)C(=O)N[C@@H](CO)C(=O)N[C@@H](CCC(=O)O)C(=O)N[C@H](C(=O)NCC(=O)N[C@H](C(=O)NCC(=O)O)C(C)C)[C@@H](C)O` [Compound 34] (H-RS[Phe(4-NO2)]TLASSETGVG-OH), the IC50 in test [1] (setting [7]) is 13 nM. For the same compound, the “T hybridoma (SI) 5G11” value in test [2] is 32 SI. Also, the “T hybridoma (SI) 8B12” value in test [3] came to 20 SI. In test [4], the “T hybridoma (SI) 14G11” value is listed as 33 SI. Regarding RAFTLASSETGVG [Compound 11], in test [1] (setting [6]), the IC50 worked out at 100 nM.

For FTLASSETGVG [Compound 6], the IC50 in test [1] (setting [5]) came out at 110 nM. Same read-out and setting: in the case of RSFTLASSETG [Compound 3] it was 200 nM. For RSFTLAASETGVG [Compound 16], in test [1] (setting [6]), the IC50 worked out at 50 nM. RSFTLASAETGVG [Compound 17]: in test [1] (setting [6]), the IC50 came out at 50 nM. With `CC(C)C[C@H](NC(=O)[C@@H](NC(=O)[C@H](Cc1ccc(F)cc1)NC(=O)[C@H](CO)NC(=O)[C@@H](N)CCCNC(=N)N)[C@@H](C)O)C(=O)N[C@@H](C)C(=O)N[C@@H](CO)C(=O)N[C@@H](CO)C(=O)N[C@@H](CCC(=O)O)C(=O)N[C@H](C(=O)NCC(=O)N[C@H](C(=O)NCC(=O)O)C(C)C)[C@@H](C)O` [Compound 30] (H-RS[Phe(4-F)]TLASSETGVG-OH), the IC50 in test [1] (setting [7]) was 12 nM. The “T hybridoma (SI) 5G11” value in test [2] is 29 SI. The “T hybridoma (SI) 8B12” value in test [3] was 17 SI. Moreover, in test [4], the “T hybridoma (SI) 14G11” value stood at 27 SI. On to `CC(C)C[C@H](NC(=O)[C@@H](NC(=O)[C@H](Cc1ccc(Cl)cc1)NC(=O)[C@H](CO)NC(=O)[C@@H](N)CCCNC(=N)N)[C@@H](C)O)C(=O)N[C@@H](C)C(=O)N[C@@H](CO)C(=O)N[C@@H](CO)C(=O)N[C@@H](CCC(=O)O)C(=O)N[C@H](C(=O)NCC(=O)N[C@H](C(=O)NCC(=O)O)C(C)C)[C@@H](C)O` [Compound 31] (H-RS[Phe(4-Cl)]TLASSETGVG-OH), for which the IC50 in test [1] (setting [7]) is 9 nM. Besides, the “T hybridoma (SI) 5G11” value in test [2] is on record as 32 SI. Further, the “T hybridoma (SI) 8B12” value in test [3] is given as 14 SI. In addition, in test [4], the “T hybridoma (SI) 14G11” value was 29 SI. For `CC(C)C[C@H](NC(=O)[C@@H](NC(=O)[C@H](Cc1ccc(I)cc1)NC(=O)[C@H](CO)NC(=O)[C@@H](N)CCCNC(=N)N)[C@@H](C)O)C(=O)N[C@@H](C)C(=O)N[C@@H](CO)C(=O)N[C@@H](CO)C(=O)N[C@@H](CCC(=O)O)C(=O)N[C@H](C(=O)NCC(=O)N[C@H](C(=O)NCC(=O)O)C(C)C)[C@@H](C)O` [Compound 33] (H-RS[Phe(4-I)]TLASSETGVG-OH), the IC50 in test [1] (setting [7]) is less than 9 nM. In addition, in test [2], the “T hybridoma (SI) 5G11” value came to 26 SI. On to RSFTLASSET [Compound 4], for which the IC50 in test [1] (setting [5]) amounted to 7000 nM. For the compound `CC(C)C[C@H](NC(=O)[C@@H](NC(=O)[C@H](COCc1ccccc1)NC(=O)[C@H](CO)NC(=O)[C@@H](N)CCCNC(=N)N)[C@@H](C)O)C(=O)N[C@@H](C)C(=O)N[C@@H](CO)C(=O)N[C@@H](CO)C(=O)N[C@@H](CCC(=O)O)C(=O)N[C@H](C(=O)NCC(=O)N[C@H](C(=O)NCC(=O)O)C(C)C)[C@@H](C)O` [Compound 35] (H-RSS(Bn)TLASSETGVG-OH), in test [1] (setting [7]), the IC50 was determined as 7 nM. In test [2], the “T hybridoma (SI) 5G11” value is given as 28 SI. Further, the “T hybridoma (SI) 8B12” value in test [3] is 20 SI. Further, the “T hybridoma (SI) 14G11” value in test [4] is listed as 31 SI.

`CC(C)C[C@H](NC(=O)[C@@H](NC(=O)[C@H](Cc1cccs1)NC(=O)[C@H](CO)NC(=O)[C@@H](N)CCCNC(=N)N)[C@@H](C)O)C(=O)N[C@@H](C)C(=O)N[C@@H](CO)C(=O)N[C@@H](CO)C(=O)N[C@@H](CCC(=O)O)C(=O)N[C@H](C(=O)NCC(=O)N[C@H](C(=O)NCC(=O)O)C(C)C)[C@@H](C)O` [Compound 26] (H-RS[2Thi]TLASSETGVG-OH): the IC50 in test [1] (setting [7]) stood at 9 nM. Besides, in test [2], the “T hybridoma (SI) 5G11” value stood at 23 SI. In test [3], the “T hybridoma (SI) 8B12” value is listed as 18 SI. Moreover, the “T hybridoma (SI) 14G11” value in test [4] is 31 SI. The corresponding values for `CC(C)C[C@H](NC(=O)[C@@H](NC(=O)[C@H](CC1CCCCC1)NC(=O)[C@H](CO)NC(=O)[C@@H](N)CCCNC(=N)N)[C@@H](C)O)C(=O)N[C@@H](C)C(=O)N[C@@H](CO)C(=O)N[C@@H](CO)C(=O)N[C@@H](CCC(=O)O)C(=O)N[C@H](C(=O)NCC(=O)N[C@H](C(=O)NCC(=O)O)C(C)C)[C@@H](C)O` [Compound 25] (H-RS[Cha]TLASSETGVG-OH) are 7 nM, 32 SI, 18 SI and 26 SI. With SFTLASSETGVG [Compound 5], in test [1] (setting [5]), the half-maximal inhibitory concentration (IC50) worked out at 90 nM. On to ASFTLASSETGVG [Compound 10], for which the IC50 in test [1] (setting [6]) amounted to 100 nM. On to `CC(C)C[C@H](NC(=O)[C@@H](NC(=O)[C@H](Cc1cccnc1)NC(=O)[C@H](CO)NC(=O)[C@@H](N)CCCNC(=N)N)[C@@H](C)O)C(=O)N[C@@H](C)C(=O)N[C@@H](CO)C(=O)N[C@@H](CO)C(=O)N[C@@H](CCC(=O)O)C(=O)N[C@H](C(=O)NCC(=O)N[C@H](C(=O)NCC(=O)O)C(C)C)[C@@H](C)O` [Compound 29] (H-RS[3Pal]TLASSETGVG-OH), for which the IC50 in test [1] (setting [7]) was determined as 16 nM. Further, the “T hybridoma (SI) 5G11” value in test [2] was found to be 23 SI. Moreover, the “T hybridoma (SI) 8B12” value in test [3] was 19 SI. Further, the “T hybridoma (SI) 14G11” value in test [4] came out at 44 SI.

Take RSFTLASSATGVG [Compound 18]: the IC50 in test [1] (setting [6]) was 40 nM.

Turning to RSFTLASSEAGVG [Compound 19], the IC50 in test [1] (setting [6]) is 40 nM.

RSFALASSETGVG [Compound 13]: the IC50 in test [1] (setting [6]) stood at 60 nM.

For `CC(C)C[C@H](NC(=O)[C@@H](NC(=O)[C@H](CCc1ccccc1)NC(=O)[C@H](CO)NC(=O)[C@@H](N)CCCNC(=N)N)[C@@H](C)O)C(=O)N[C@@H](C)C(=O)N[C@@H](CO)C(=O)N[C@@H](CO)C(=O)N[C@@H](CCC(=O)O)C(=O)N[C@H](C(=O)NCC(=O)N[C@H](C(=O)NCC(=O)O)C(C)C)[C@@H](C)O` [Compound 24] (H-RS[hPhe]TLASSETGVG-OH), in test [1] (setting [7]), the IC50 is 15 nM.
